Results as given in publication PMC8268581, “Identification of 3,4-Dihydro-2H,6H-pyrimido[1,2-c][1,3]benzothiazin-6-imine Derivatives as Novel Selective Inhibitors of Plasmodium falciparum Dihydroorotate Dehydrogenase” (International Journal of Molecular Sciences, 2021).

system: P. falciparum 3D7; assay: In vitro antimalarial assay (PfLDH/diaphorase); assay type: cell-based; conditions: Plasmodium falciparum, growth inhibition, 72 h, 0.0003 to 10 µM, read-out: EC50 Pf3D7
Protocol: This assay was conducted using human red blood cells (RBC) following the guidelines of the ethics committee of Nagasaki University (permission no. 19). Human RBC was obtained from the Japanese Red Cross Society. The P. falciparum 3D7 strain was cultured in 2% hematocrit type O human RBC in RPMI-1640 medium (Gibco) supplemented with 23.8 mM sodium bicarbonate (Wako), 50 mg/L hypoxanthine (Wako), 25 mg/L gentamycin (Sigma), and 0.5% (w/v) AlbuMAX®® II (Gibco) under a 5% O2, 5% CO2, and 90% N2 atmosphere at 37 °C. Parasites were synchronized with 5% (w/v) D-sorbitol (Wako).
Synchronized ring-stage parasites at 0.3% parasitemia and 2% hematocrit were cultured in a 384-well plate at 25 µL with test compounds at a final concentration in the range of 0.0003 to 10 µM with a fixed DMSO concentration of 0.4% (v/v). Parasite growth was monitored by the diaphorase-coupled P. falciparum lactate dehydrogenase (PfLDH) assay, as previously described. After 72 h, 70 µL of the assay solution (150 mM lithium L-lactate (Wako), 0.05 mg/mL 3-acetylpyridine adenine dinucleotide (Oriental Yeast Co., Ltd., Tokyo, Japan), 0.2 mg/mL nitro blue tetrazolium (Wako), 1 unit/mL diaphorase, and 100 mM Tris-HCl pH 8.0) were mixed with the parasite culture and incubated at room temperature for 40 min, and the generated nitro blue formazan was measured at 650 nm using a SpectraMax®® Paradigm®® Multi-Mode Microplate Reader. […] The EC50 was calculated using GraphPad Prism 8.0 software from the mean of quadruplets values.

Row | Compound | EC50 [µM]
1 | N=C1Sc2cc(-c3ccc4ccccc4c3)ccc2C2=NCCCN12 [Compound 1] | 0.43 ± 0.18
2 | N=C1Sc2cc(-c3ccc4c(c3)OCO4)ccc2C2=NCCCN12 [Compound 3] | 1.16 ± 0.02
3 | N=C1Sc2cc(-c3ccc4c(c3)OCCO4)ccc2C2=NCCCN12 [Compound 4] | 1.07 ± 0.05
4 | N=C1Sc2cc(-c3ccc4cnccc4c3)ccc2C2=NCCCN12 [Compound 5] | 1.13 ± 0.05
5 | N=C1Sc2cc(-c3ccc4c(C(=O)OC(F)(F)F)c[nH]c4c3)ccc2C2=NCCCN12 [Compound 6] | 0.37 ± 0.05
6 | N=C1Sc2cc(-c3cc4ccccc4o3)ccc2C2=NCCCN12 [Compound 7] | 0.34 ± 0.01
7 | N=C1Sc2cc(/C=C/c3ccccc3)ccc2C2=NCCCN12 [Compound 8] | 0.63 ± 0.25
8 | CC(C)(C)N=C1Sc2cc(-c3cc4ccccc4s3)ccc2C2=NCCCN12 [Compound 10] | 2.77 ± 0.28
9 | N=C1Sc2cc(-c3ccccc3)ccc2C2=NCCCN12 [Compound 12] | 1.15 ± 0.07
10 | COC(=O)c1ccc(-c2ccc3c(c2)SC(=N)N2CCCN=C32)cc1 [Compound 13] | 1.06 ± 0.01
11 | N#Cc1ccc(-c2ccc3c(c2)SC(=N)N2CCCN=C32)cc1 [Compound 14] | 1.21 ± 0.04
12 | N=C1Sc2cc(-c3ccc(C(F)(F)F)cc3)ccc2C2=NCCCN12 [Compound 15] | 1 ± 0.05
13 | CSc1ccc(-c2ccc3c(c2)SC(=N)N2CCCN=C32)cc1 [Compound 17] | 1.62 ± 0.56
14 | N=C1Sc2cc(-c3ccc(OC(F)(F)F)cc3)ccc2C2=NCCCN12 [Compound 18] | 0.37 ± 0.13
15 | N=C1Sc2cc(-c3ccc(C(=O)c4ccccc4)cc3)ccc2C2=NCCCN12 [Compound 19] | 0.51 ± 0.14
16 | C#CCOCc1ccc(C(=O)c2ccc(-c3ccc4c(c3)SC(=N)N3CCCN=C43)cc2)cc1 [Compound 20] | 0.38 ± 0.08
17 | N=C1Sc2cc(-c3cccc([N+](=O)[O-])c3)ccc2C2=NCCCN12 [Compound 21] | 0.85 ± 0.12
18 | CC(C)Oc1cccc(-c2ccc3c(c2)SC(=N)N2CCCN=C32)c1 [Compound 22] | 0.9 ± 0.44
19 | CCc1cccc(-c2ccc3c(c2)SC(=N)N2CCCN=C32)c1 [Compound 25] | 1.77 ± 0.83
20 | N=C1Sc2cc(-c3ccccc3-c3ccccc3)ccc2C2=NCCCN12 [Compound 27] | 0.39 ± 0.05
21 | c1ccc(-c2ccc3c(c2)SN2CCCN=C32)cc1 [Compound 30] | 9.67 ± 5.09
22 | c1ccc2c(-c3ccc4c(c3)SN3CCCN=C43)cccc2c1 [Compound 31] | 0.33 ± 0.01
23 | c1cc2c(cc1-c1ccc3c(c1)SN1CCCN=C31)OCO2 [Compound 32] | 1.85 ± 0.53
24 | c1ccc(-c2ccc3c(c2)C2=NCCCN2S3)cc1 [Compound 36] | 4.16 ± 0.09
25 | COC(=O)c1ccc(-c2ccc3c(c2)SN2CCCN=C32)cc1 [Compound 37] | 2.78 ± 0.27
26 | O=[N+]([O-])c1ccc(-c2ccc3c(c2)SN2CCCN=C32)cc1 [Compound 39] | 1.14 ± 0.06
27 | COC(=O)c1cccc(-c2ccc3c(c2)SN2CCCN=C32)c1 [Compound 40] | 1.72 ± 0.48
28 | COc1ccccc1-c1ccc2c(c1)SN1CCCN=C21 [Compound 42] | 0.54 ± 0.22
29 | O=[N+]([O-])c1ccccc1-c1ccc2c(c1)SN1CCCN=C21 [Compound 43] | 1.11 ± 0.08
